Test results taken from patent US4497806A, “Triorganotin compounds, antifungal and antibacterial compositions containing same, and method of using same” (priority 1983, dated 1985).

Key:
[1] = system: Aspergillus niger (ATCC 12845); test: Antifungal activity, agar plate growth inhibition; assay type: cell-based; details: 14 days
Procedure: (§1) Dilutions of the sterile solutions were prepared and added to liquified potato dextrose agar (Difco) to yield final concentrations of 100, 10 and 1 μg/ml. The agar, containing the appropriate organotin compound, was poured into sterile petri dishes and allowed to solidify over night. The agar surface was inoculated centrally with a 2 mm^2 portion of the growth from a ten-day-old culture of each fungus of the group consisting of Aspergillus niger, Chaetomium globosum, Cladosporium carpophilum, Fusarium moniliforme, Myrotheium verrucaria, Penicillium notatum, Rhizopus stolonifer, Trichoderma viride and Trichophyton mentagrophytes, or from a two-day-old culture of Saccharomyces cerevisiae. Inoculated plates were incubated for 14 days and observations of growth inhibition were made by measuring the diameters of the colonies present on the agar surface.
(§2) A solvent was included in all evaluations, as were growth controls for all fungal species.
(§3) The following compounds were tested for comparative purposes: [drawing 6] These compounds were tested for antifungal activity in the same manner as the triorganotin 5-nitro-2-furoates of the present invention.

[2] = system: Chaetomium globosum (ATCC 6205); test: Antifungal activity, agar plate growth inhibition; assay type: cell-based; details: 14 days
Procedure: as §1, §2, §3

[3] = system: Fusarium moniliforme (ATCC 10052); test: Antifungal activity, agar plate growth inhibition; assay type: cell-based; details: 14 days
Procedure: as §1, §2, §3

[4] = system: Myrothecium verrucaria (ATCC 9095); test: Antifungal activity, agar plate growth inhibition; assay type: cell-based; details: 14 days
Procedure: as §1, §2, §3

[5] = system: Penicillium notatum (ATCC 9179); test: Antifungal activity, agar plate growth inhibition; assay type: cell-based; details: 14 days
Procedure: as §1, §2, §3

[6] = system: Rhizopus stolonifer (ATCC 10404); test: Antifungal activity, agar plate growth inhibition; assay type: cell-based; details: 14 days
Procedure: as §1, §2, §3

[7] = system: Saccharomyces cerevisiae (ATCC 9896); test: Antifungal activity, agar plate growth inhibition; assay type: cell-based; details: 14 days
Procedure: as §1, §2, §3

[8] = system: Trichoderma viride (ATCC 8678); test: Antifungal activity, agar plate growth inhibition; assay type: cell-based; details: 14 days
Procedure: as §1, §2, §3

[9] = system: Trichophyton mentagrophytes (ATCC 9129); test: Antifungal activity, agar plate growth inhibition; assay type: cell-based; details: 14 days
Procedure: as §1, §2, §3

[10] = system: Cladosporium carpophilium (ATCC 12117); test: Antifungal activity, agar plate growth inhibition; assay type: cell-based, Cladosporium carpophilum; details: 14 days
Procedure: as §1, §2, §3

Escherichia coli = test: Antibacterial activity, agar growth inhibition; assay type: cell-based; details: for growth inhibition: Gram-negative, 24 hours at 37° C.
Procedure: (§4) The agar was also needed with a 1:100 dilution of an 18-hour old culture of the desired bacterial species in sterile distilled water. The plates were incubated for 24 hours at 37° C. with each bacterial strain. Observations of bacterial growth inhibition were made following the appropriate incubation period.
(§5) A solvent control was included in all evaluations, as were growth controls for all bacteria species.
(§6) These compounds were tested for antibacterial activity in the same manner as the triorganotin 5-nitro-2-furoates of the present invention.
(§7) All of the bacteria tested were obtained from the culture collection of the Department of Biological Sciences, St. John's University.

Bacillus subtilis = test: Antibacterial activity, agar growth inhibition; assay type: cell-based; parameters: key: -: no inhibition of growth; +: partial inhibition; 2+: complete inhibition; details: Gram-positive; 1 μg/ml; 24 hours at 37° C.
Procedure: as §4, with “The antibacterial activity of Compounds A-E was investigated by means of incorporating the compounds into sterile tryptic soy agar (Difco) at levels of 100, 10, and 1 μg/ml. The agar” for “The agar”
as §5
(§8) Comparative compounds 1-5 above were employed for comparison purposes. These compounds were tested for antibacterial activity in the same manner as the triorganotin 5-nitro-2-furoates of the present invention.
as §7
(§9) The ability of Compound B to inhibit the growth of other Gram-positive bacteria, using the same test procedures as described for the antibacterial activity determined in Table III above, is illustrated in Table IV below.

Bacillus megaterium = test: Antibacterial activity, agar growth inhibition; assay type: cell-based; details: Gram-positive
Procedure: as §4, §5, §6, §7

Pseudomonas aeruginosa = test: Antibacterial activity, agar growth inhibition; assay type: cell-based; details: Gram-negative, 24 hours at 37° C.
Procedure: as §4, §5, §6, §7

Staphylococcus aureus = test: Antibacterial activity, agar growth inhibition; assay type: cell-based; parameters: key to growth inhibition: -: no inhibition of growth; +: partial inhibition; 2+: complete inhibition
Procedure: as §4, with “The antibacterial activity of Compounds A-E was investigated by means of incorporating the compounds into sterile tryptic soy agar (Difco) at levels of 100, 10, and 1 μg/ml. The agar” for “The agar”
as §5, §8, §7, §9

test fungi = test: Antifungal activity, summary over the 10 test fungi; assay type: cell-based
Procedure: as §1, §2, §3

CCOC(=Nc1ccccc1)[S][Sn]([c]1ccccc1)([c]1ccccc1)[c]1ccccc1 [compound 4, Ethyl N--phenyl-S--(triphenylstannyl)iso-thiocarbamate, reference compound]
growth inhibition ([1]; 1 μg/ml): +
growth inhibition ([1]; 10 μg/ml): +
growth inhibition ([1]; 100 μg/ml): +
growth inhibition ([2]; 1 μg/ml): +
growth inhibition ([2]; 10 μg/ml): +
growth inhibition ([2]; 100 μg/ml): 2+
growth inhibition ([3]; 1 μg/ml): +
growth inhibition ([3]; 10 μg/ml): +
growth inhibition ([3]; 100 μg/ml): +
growth inhibition ([4]; 1 μg/ml): +
growth inhibition ([4]; 10 μg/ml): +
growth inhibition ([4]; 100 μg/ml): +
growth inhibition ([5]; 1 μg/ml): +
growth inhibition ([5]; 10 μg/ml): +
growth inhibition ([5]; 100 μg/ml): +
growth inhibition ([6]; 1 μg/ml): +
growth inhibition ([6]; 10 μg/ml): +
growth inhibition ([6]; 100 μg/ml): +
growth inhibition ([7]; 1 μg/ml): -
growth inhibition ([7]; 10 μg/ml): +
growth inhibition ([7]; 100 μg/ml): +
growth inhibition ([8]; 1 μg/ml): -
growth inhibition ([8]; 10 μg/ml): +
growth inhibition ([8]; 100 μg/ml): +
growth inhibition ([9]; 1 μg/ml): +
growth inhibition ([9]; 10 μg/ml): 2+
growth inhibition ([9]; 100 μg/ml): 2+
growth inhibition ([10]; 1 μg/ml): +
growth inhibition ([10]; 10 μg/ml): +
growth inhibition ([10]; 100 μg/ml): 2+
growth inhibition (in words) (Escherichia coli; 100 μg/ml): partially
growth inhibition (Escherichia coli; 1 μg/ml): -
growth inhibition (Escherichia coli; 10 μg/ml): -
growth inhibition (Bacillus subtilis): -

Triphenyltin 5-nitro-2-furoate [Compound A]
growth inhibition ([1]; 1 μg/ml): +
growth inhibition ([1]; 10 μg/ml): 2+
growth inhibition ([1]; 100 μg/ml): 2+
growth inhibition ([2]; 1 μg/ml): +
growth inhibition ([2]; 10 μg/ml): +
growth inhibition ([2]; 100 μg/ml): +
growth inhibition ([3]; 1 μg/ml): +
growth inhibition ([3]; 10 μg/ml): +
growth inhibition ([3]; 100 μg/ml): +
growth inhibition ([4]; 1 μg/ml): +
growth inhibition ([4]; 10 μg/ml): 2+
growth inhibition ([4]; 100 μg/ml): 2+
growth inhibition ([5]; 1 μg/ml): +
growth inhibition ([5]; 10 μg/ml): 2+
growth inhibition ([5]; 100 μg/ml): 2+
growth inhibition ([6]; 1 μg/ml): +
growth inhibition ([6]; 10 μg/ml): +
growth inhibition ([6]; 100 μg/ml): +
growth inhibition ([7]; 1 μg/ml): -
growth inhibition ([7]; 10 μg/ml): +
growth inhibition ([7]; 100 μg/ml): +
growth inhibition ([8]; 1 μg/ml): +
growth inhibition ([8]; 10 μg/ml): +
growth inhibition ([8]; 100 μg/ml): +
growth inhibition ([9]; 1 μg/ml): +
growth inhibition ([9]; 10 μg/ml): 2+
growth inhibition ([9]; 100 μg/ml): 2+
growth inhibition ([10]; 1 μg/ml): 2+
growth inhibition ([10]; 10 μg/ml): 2+
growth inhibition ([10]; 100 μg/ml): 2+
minimum concentration for complete growth inhibition (Bacillus megaterium): 1 µg/mL
growth inhibition (Escherichia coli; 1 μg/ml): -
growth inhibition (Escherichia coli; 10 μg/ml): -
growth inhibition (Escherichia coli; 100 μg/ml): -
growth inhibition (Pseudomonas aeruginosa; 1 μg/ml): -
growth inhibition (Pseudomonas aeruginosa; 10 μg/ml): -
growth inhibition (Pseudomonas aeruginosa; 100 μg/ml): -
minimum concentration for complete growth inhibition (Staphylococcus aureus; Gram-positive): 1 µg/mL
activity relative to Comparative Compounds 2, 4 and 5 (Staphylococcus aureus; towards Staphylococcus aureus): identical
partial growth inhibition of test fungi (in words) (test fungi; 1 μg/ml): partially inhibiting the growth of all of the test fungi, except Saccharomyces cerevisiae
number of test fungi with growth completely inhibited (test fungi; 10 μg/ml): 5 of the 10 test fungi
antifungal activity, rank among the triorganotin 5-nitro-2-furoates (test fungi; among Compounds A-E): second best antifungal agent

Tri(2-phenyl-2,2-dimethylethyl)tin 5-nitro-2-furoate [Compound D]
growth inhibition ([1]; 1 μg/ml): -
growth inhibition ([1]; 10 μg/ml): -
growth inhibition ([1]; 100 μg/ml): -
growth inhibition ([2]; 1 μg/ml): -
growth inhibition ([2]; 10 μg/ml): +
growth inhibition ([2]; 100 μg/ml): +
growth inhibition ([3]; 1 μg/ml): -
growth inhibition ([3]; 10 μg/ml): -
growth inhibition ([3]; 100 μg/ml): -
growth inhibition ([4]; 1 μg/ml): -
growth inhibition ([4]; 10 μg/ml): +
growth inhibition ([4]; 100 μg/ml): +
growth inhibition ([5]; 1 μg/ml): -
growth inhibition ([5]; 10 μg/ml): +
growth inhibition ([5]; 100 μg/ml): +
growth inhibition ([6]; 1 μg/ml): -
growth inhibition ([6]; 10 μg/ml): -
growth inhibition ([6]; 100 μg/ml): -
growth inhibition ([7]; 1 μg/ml): -
growth inhibition ([7]; 10 μg/ml): -
growth inhibition ([7]; 100 μg/ml): -
growth inhibition ([8]; 1 μg/ml): -
growth inhibition ([8]; 10 μg/ml): -
growth inhibition ([8]; 100 μg/ml): -
growth inhibition ([9]; 1 μg/ml): +
growth inhibition ([9]; 10 μg/ml): +
growth inhibition ([9]; 100 μg/ml): +
growth inhibition ([10]; 1 μg/ml): -
growth inhibition ([10]; 10 μg/ml): -
growth inhibition ([10]; 100 μg/ml): -
growth inhibition (Escherichia coli; 1 μg/ml): -
growth inhibition (Escherichia coli; 10 μg/ml): -
growth inhibition (Escherichia coli; 100 μg/ml): -
growth inhibition (Pseudomonas aeruginosa; 1 μg/ml): -
growth inhibition (Pseudomonas aeruginosa; 10 μg/ml): -
growth inhibition (Pseudomonas aeruginosa; 100 μg/ml): -
growth inhibition (Staphylococcus aureus; Gram-positive, 1 μg/ml, 24 hours at 37° C.): -
